The text below walks through data of patent publication US20190185479A1, “BICYCLIC NITROGENATED HETEROCYCLIC COMPOUND” (MITSUBISHI TANABE PHARMA CORPORATION, priority 2016, published 2019).

Holding throughout (assay type): biochemical
One test deals with T1, hPDE4D (Homo sapiens, UniProt Q08499).
T1 construct: purchased SB Drug Discovery
Briefly: PDE4 inhibition assay (IC50), Experimental Example 3. The note with it: hPDE4D; read-out: PDE inhibition assay IC50, PDE4. In a few lines: (§1)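 Recombinant human enzymes incubated with compound and 3 nmol/L cAMP (final) in Tris-HCl pH 7.5 buffer with MgCl2, BSA, DTT, 2% DMSO final, 60 min at room temperature. Residual cAMP measured by TR-FRET (LANCE Ultra), reaction stopped with 0.5 mmol/L IBMX. IC50 from inhibition relative to no-compound (0%) and no-enzyme (100%) controls.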

Another test has as its target T2, hPDE5A (Homo sapiens, UniProt O76074).
T2 construct: purchased SB Drug Discovery
Description: PDE7 selectivity test (Ki value), Experimental Example 2: hPDE5A. The note with it: Ki from IC50 by Cheng-Prusoff, read-out: PDE inhibition constant Ki, PDE5. On the procedure: (§2) hPDE1A, hPDE2A, hPDE3A, hPDE4D, hPDE5A, and hPDE8B were purchased from SB Drug Discovery. hPDE7B was isolated by the same method as [Method for preparing samples 1], and hPDE9A, hPDE10A, and hPDE11A were isolated by the same method as hPDE7B, i.e., isolated from COS-7 cells transfected with plasmids encoding each PDE. PDE6 was purified and isolated from bovine retina (bovine PDE6).
(§3) Prior to the calculation of Ki value, Km value of each PDE against cAMP or cGMP was calculated. Each PDE diluted with an assay buffer so that it would have an appropriate enzyme activity, and six or more concentrations of cAMP or cGMP were reacted at room temperature for 60 minutes. Regarding PDE using cAMP as a substrate, PDELight (trademark) HTS cAMP phosphodiesterase Kit (Lonza) was used to measure a degradation product, 5′-AMP. Also, regarding PDE using cGMP as a substrate, […] of perchloric acid was added to the mixture to stop the reaction, and the resulting mixture was subjected to LC-MS/MS to measure the residual cGMP concentration. The amount of degraded substrate in each substrate concentration was calculated, the concentration of the added substrate was plotted on the horizontal axis, the amount of degraded substrate was plotted on the vertical axis, and Km value was calculated by non-linear regression on the basis of Michaelis-Menten equation. Km value (substrate) of each PDE was hPDE1A: 4.3 (cGMP), hPDE2A: 36 (cAMP), hPDE3A: 0.11 (cAMP), hPDE4D: 0.90 (cAMP), hPDE5A: 3.9 (cGMP), bovine PDE6:9.8 (cGMP), hPDE7B: 0.015 (cAMP), hPDE8B: 0.63 (cAMP), hPDE9A: 0.0037 (cGMP), hPDE10A: 0.051 (cAMP), and hPDE11A: 1.4 (cAMP) μmol/L, respectively.
(§4) Next, PDE inhibition assay of a compound was carried out using each PDE. The PDE inhibition assay was basically carried out by the same enzyme reaction method as [Assay procedure 1], and the degraded amount of cAMP or cGMP was measured by the same method as [Assay procedure 2]. In the assay, a concentration approximated to Km value of each PDE against cAMP or cGMP was used as a substrate concentration. Meanwhile, regarding hPDE5A, hPDE8B, and hPDE9A, IMAP (trademark) FP Phosphodiesterase Evaluation Assay Kit (Molecular Devices) was used to measure the degradation of FAM-cAMP or FAM-cGMP by fluorescence depolarization technique.
(§5) Each compound was evaluated at six or more concentrations with common ratio 10. Each inhibition rate was calculated according to <Method for data calculation 1>, and then each IC50 value was calculated by sigmoid regression. The resulting IC50 value was used in the following Cheng-Prusoff equation to calculate each Ki value. Ki=IC50/(1+[S]/Km), wherein [S] represents a substrate concentration used

Another test deals with T3, hPDE8B (Homo sapiens, UniProt O95263).
T3 construct: purchased SB Drug Discovery
Description: PDE8 inhibition assay (IC50), Experimental Example 3. The note with it: hPDE8B; read-out: PDE inhibition assay IC50, PDE8. In a few lines:
as §1

A further test addresses T4, hPDE9A (Homo sapiens, UniProt O76083).
T4 construct: made in house; host or cells: COS-7 cells
Briefly: PDE7 selectivity test (Ki value), Experimental Example 2: hPDE9A. The note with it: Ki from IC50 by Cheng-Prusoff, read-out: PDE inhibition constant Ki, PDE9. On the procedure: as §2, §3, §4, §5

In another test the target is T5, hPDE2A (Homo sapiens, UniProt O00408).
T5 construct: purchased SB Drug Discovery
Briefly: PDE7 selectivity test (Ki value), Experimental Example 2: hPDE2A. The note with it: Ki from IC50 by Cheng-Prusoff, read-out: PDE inhibition constant Ki, PDE2. On the procedure: as §2, §3, §4, §5

The target in another test is T6, hPDE11A (Homo sapiens, UniProt Q9HCR9).
T6 construct: made in house; host or cells: COS-7 cells
Briefly: PDE7 selectivity test (Ki value), Experimental Example 2: hPDE11A. The note with it: Ki from IC50 by Cheng-Prusoff, read-out: PDE inhibition constant Ki, PDE11. The procedure:
as §2, §3, §4, §5

The target in a further test is hPDE10A (Homo sapiens, UniProt Q9Y233). Description: PDE10 inhibition assay (IC50), Experimental Example 3. The note with it: for IC50: hPDE10A, read-out: PDE inhibition assay IC50, PDE10; for inhibition at 10 µM: at 10 μmol/L, read-out: inhibition rate (%) at prescribed concentration, PDE10. In a few lines:
as §1

SMILES strings stand for the structures.

T1 sequence (Q08499 whole entry): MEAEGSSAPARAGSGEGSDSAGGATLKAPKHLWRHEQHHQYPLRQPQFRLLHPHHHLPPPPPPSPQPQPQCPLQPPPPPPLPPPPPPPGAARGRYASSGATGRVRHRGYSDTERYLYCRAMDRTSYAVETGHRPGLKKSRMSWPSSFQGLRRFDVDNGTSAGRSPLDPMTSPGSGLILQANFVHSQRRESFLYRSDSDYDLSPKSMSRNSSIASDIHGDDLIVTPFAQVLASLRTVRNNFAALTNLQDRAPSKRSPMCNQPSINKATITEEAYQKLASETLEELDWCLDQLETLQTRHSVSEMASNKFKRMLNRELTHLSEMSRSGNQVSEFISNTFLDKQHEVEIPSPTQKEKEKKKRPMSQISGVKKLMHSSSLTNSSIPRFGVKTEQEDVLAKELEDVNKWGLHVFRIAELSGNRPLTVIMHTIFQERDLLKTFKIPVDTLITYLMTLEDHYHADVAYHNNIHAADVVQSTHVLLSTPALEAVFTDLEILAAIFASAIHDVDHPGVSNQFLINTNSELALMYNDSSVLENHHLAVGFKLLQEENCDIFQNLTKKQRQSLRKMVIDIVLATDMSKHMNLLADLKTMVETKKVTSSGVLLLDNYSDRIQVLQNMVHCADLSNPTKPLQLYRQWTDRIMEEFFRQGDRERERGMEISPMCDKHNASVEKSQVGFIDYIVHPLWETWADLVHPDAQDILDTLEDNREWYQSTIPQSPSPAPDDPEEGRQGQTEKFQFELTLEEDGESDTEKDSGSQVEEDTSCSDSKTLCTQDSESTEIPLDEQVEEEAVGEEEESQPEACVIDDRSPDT
Chain of hPDE10A (Q9Y233 290-1055 limits assumed): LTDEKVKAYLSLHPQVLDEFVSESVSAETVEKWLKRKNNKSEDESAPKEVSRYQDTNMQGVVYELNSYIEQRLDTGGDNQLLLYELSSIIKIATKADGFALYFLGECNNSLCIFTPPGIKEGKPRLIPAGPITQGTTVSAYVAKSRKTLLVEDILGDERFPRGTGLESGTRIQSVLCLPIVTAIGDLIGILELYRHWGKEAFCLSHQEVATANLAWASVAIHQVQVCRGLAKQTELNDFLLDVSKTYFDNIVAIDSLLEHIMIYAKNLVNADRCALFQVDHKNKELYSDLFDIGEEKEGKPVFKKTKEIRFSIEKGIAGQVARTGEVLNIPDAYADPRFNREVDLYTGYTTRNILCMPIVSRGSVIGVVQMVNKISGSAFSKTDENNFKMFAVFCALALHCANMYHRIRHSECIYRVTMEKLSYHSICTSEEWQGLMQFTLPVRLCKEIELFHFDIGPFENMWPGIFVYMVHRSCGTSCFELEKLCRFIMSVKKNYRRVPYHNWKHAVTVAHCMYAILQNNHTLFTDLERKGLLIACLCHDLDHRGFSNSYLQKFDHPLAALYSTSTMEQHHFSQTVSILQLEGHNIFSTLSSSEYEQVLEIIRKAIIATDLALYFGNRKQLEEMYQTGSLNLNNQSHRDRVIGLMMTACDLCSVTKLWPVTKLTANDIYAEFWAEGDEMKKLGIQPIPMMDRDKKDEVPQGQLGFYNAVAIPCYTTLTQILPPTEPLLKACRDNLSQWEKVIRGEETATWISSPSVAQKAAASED
T5 sequence (O00408 whole entry): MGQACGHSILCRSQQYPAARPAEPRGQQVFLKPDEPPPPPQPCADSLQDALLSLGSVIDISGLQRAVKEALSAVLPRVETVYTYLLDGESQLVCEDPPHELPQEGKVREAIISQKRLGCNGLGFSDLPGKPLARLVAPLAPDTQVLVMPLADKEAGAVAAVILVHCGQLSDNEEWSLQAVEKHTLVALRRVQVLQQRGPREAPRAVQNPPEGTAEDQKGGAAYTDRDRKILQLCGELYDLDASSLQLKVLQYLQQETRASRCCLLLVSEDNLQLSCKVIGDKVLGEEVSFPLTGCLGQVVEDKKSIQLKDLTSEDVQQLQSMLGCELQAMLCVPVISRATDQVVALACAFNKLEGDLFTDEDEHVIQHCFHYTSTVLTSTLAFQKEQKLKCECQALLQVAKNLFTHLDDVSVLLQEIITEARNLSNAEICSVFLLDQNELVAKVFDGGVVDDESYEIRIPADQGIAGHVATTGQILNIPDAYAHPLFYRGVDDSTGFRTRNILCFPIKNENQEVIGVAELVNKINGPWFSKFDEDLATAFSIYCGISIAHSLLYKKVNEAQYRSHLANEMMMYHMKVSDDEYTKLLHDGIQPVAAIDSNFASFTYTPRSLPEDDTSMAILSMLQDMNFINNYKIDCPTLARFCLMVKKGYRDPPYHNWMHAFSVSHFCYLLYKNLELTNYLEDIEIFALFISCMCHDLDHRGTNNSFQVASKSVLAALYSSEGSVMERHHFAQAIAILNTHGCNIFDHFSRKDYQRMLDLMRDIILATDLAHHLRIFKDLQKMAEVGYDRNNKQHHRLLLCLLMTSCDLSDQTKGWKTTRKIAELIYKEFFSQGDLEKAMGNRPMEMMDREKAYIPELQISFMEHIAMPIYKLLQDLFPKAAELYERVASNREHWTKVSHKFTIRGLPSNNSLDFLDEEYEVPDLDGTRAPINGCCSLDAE
T3 sequence (O95263 whole entry): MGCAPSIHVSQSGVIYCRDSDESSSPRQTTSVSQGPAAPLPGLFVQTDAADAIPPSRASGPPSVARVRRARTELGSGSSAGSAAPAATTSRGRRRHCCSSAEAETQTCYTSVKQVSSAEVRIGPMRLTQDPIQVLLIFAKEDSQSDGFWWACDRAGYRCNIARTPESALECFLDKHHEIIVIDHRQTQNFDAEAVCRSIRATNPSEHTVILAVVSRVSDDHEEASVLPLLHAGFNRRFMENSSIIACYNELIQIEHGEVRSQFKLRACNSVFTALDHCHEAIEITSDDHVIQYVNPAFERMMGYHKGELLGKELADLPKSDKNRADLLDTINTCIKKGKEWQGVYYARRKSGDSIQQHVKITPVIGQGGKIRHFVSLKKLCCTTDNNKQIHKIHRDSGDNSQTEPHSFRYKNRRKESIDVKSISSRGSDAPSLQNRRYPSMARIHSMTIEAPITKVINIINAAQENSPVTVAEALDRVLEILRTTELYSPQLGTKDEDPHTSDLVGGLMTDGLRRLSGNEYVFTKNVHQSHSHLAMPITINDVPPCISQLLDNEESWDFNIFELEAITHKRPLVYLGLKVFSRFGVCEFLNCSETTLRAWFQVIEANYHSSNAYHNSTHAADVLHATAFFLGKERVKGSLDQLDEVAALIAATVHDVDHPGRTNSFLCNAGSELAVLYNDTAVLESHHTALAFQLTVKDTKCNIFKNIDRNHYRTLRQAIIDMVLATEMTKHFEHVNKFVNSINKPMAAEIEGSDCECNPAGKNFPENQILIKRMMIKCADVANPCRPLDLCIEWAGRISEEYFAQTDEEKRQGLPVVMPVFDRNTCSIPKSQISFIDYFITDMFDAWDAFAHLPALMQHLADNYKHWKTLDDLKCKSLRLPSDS
T6 sequence (Q9HCR9 whole entry): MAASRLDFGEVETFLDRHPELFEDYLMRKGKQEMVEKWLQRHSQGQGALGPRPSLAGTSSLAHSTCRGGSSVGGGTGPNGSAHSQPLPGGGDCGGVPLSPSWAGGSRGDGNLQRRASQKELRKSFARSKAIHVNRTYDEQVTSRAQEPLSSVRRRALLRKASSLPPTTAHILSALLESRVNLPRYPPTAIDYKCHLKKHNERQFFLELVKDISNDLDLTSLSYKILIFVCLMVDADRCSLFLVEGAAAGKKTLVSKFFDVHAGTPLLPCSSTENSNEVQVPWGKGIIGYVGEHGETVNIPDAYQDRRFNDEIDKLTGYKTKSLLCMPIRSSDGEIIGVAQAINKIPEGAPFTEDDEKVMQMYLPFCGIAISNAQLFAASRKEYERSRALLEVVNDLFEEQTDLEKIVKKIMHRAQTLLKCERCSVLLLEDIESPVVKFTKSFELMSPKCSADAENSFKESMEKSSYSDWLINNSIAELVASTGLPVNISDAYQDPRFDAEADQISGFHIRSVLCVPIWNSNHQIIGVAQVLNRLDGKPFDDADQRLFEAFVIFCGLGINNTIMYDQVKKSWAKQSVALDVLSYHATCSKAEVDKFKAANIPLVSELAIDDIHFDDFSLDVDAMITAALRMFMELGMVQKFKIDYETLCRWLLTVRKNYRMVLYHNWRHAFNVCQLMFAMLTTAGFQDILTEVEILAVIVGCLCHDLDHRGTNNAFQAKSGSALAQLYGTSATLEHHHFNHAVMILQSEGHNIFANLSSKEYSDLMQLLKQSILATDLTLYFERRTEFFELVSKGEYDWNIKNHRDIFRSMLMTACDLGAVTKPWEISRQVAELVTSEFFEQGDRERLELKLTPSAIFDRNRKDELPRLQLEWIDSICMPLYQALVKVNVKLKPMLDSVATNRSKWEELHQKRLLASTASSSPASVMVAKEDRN
T4 sequence (O76083 whole entry): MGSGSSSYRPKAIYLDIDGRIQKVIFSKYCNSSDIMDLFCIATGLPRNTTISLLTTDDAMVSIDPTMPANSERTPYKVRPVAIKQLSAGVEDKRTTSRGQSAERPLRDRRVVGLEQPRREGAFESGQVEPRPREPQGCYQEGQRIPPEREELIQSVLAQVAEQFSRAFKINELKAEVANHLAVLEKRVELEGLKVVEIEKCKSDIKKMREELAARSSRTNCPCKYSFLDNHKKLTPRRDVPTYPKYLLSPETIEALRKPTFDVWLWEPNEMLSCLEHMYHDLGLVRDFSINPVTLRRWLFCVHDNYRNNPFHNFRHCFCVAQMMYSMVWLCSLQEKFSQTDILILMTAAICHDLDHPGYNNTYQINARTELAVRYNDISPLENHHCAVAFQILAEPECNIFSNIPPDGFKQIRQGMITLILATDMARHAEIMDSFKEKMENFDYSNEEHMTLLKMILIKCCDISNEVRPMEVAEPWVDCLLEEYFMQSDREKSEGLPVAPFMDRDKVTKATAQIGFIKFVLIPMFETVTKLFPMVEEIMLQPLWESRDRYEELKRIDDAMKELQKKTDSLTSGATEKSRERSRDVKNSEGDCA

For the compound `C[C@@H]1CCC[C@H](c2nnc3c(N)nccn23)C1` [Example 204, 3-[(1S,3R)-3-methylcyclohexyl][1,2,4]triazolo[4,3-a]pyrazin-8-amine], the IC50 was 1.51 µM on hPDE4D, 1.75 µM at hPDE8B and 2.93 µM on hPDE10A. The Ki on hPDE5A is more than 98 µM; at hPDE9A, more than 3.6 µM; on hPDE2A, 14 µM; on hPDE11A it was 46 µM.

For the compound `CC1CCCCC1n1nnc2c(N)ncnc21` (single isomer, unassigned) [Example 191, 3-(cis-2-methylcyclohexyl)-3H-[1,2,3]triazolo[4,5-d]pyrimidin-7-amine], the 50% inhibitory concentration (IC50) worked out at 9.2 µM on hPDE4D, 5.33 µM at hPDE8B and 3.49 µM at hPDE10A. Also, the Ki on hPDE5A is more than 98 µM; on hPDE9A, more than 3.6 µM; on hPDE2A, 10 µM.

`Nc1nccn2c(C3CCCCC3)nnc12` [Example 141, 3-cyclohexyl[1,2,4]triazolo[4,3-a]pyrazin-8-amine]: the IC50 on hPDE4D was 6.22 µM; at hPDE8B it was 1.77 µM. Moreover, the Ki on hPDE5A is more than 9.8 µM; on hPDE9A, more than 0.36 µM; on hPDE2A, more than 5.1 µM; at hPDE11A it was more than 5 µM. The inhibition at 10 µM at hPDE10A was 30%.

As to `Nc1ncnc2c1nnn2C1CCCCC1` [Example 3, 3-cyclohexyl-3H-[1,2,3]triazolo[4,5-d]pyrimidin-7-amine], the IC50 on hPDE4D stood at 7.82 µM; on hPDE8B, 0.7 µM. The Ki on hPDE5A is more than 98 µM; on hPDE9A, more than 3.6 µM; on hPDE2A, 27 µM; at hPDE11A, 29 µM. For the same compound, on hPDE10A, the inhibition at 10 µM came out at 27%.

Turning to `Cc1nc(N)c2nnn(C3CCCCC3)c2n1` [Example 4], the figures for the IC50 on hPDE4D and on hPDE10A were 0.54 µM and 1.75 µM, respectively. The Ki was more than 9.8 µM on hPDE5A, more than 0.36 µM at hPDE9A, 6.6 µM at hPDE2A and more than 5 µM at hPDE11A.

One may read the IC50 as the concentration needed to halve the response being measured. Broadly, the Ki is the equilibrium dissociation constant of an inhibitor or competing ligand from its target.
